Reference: ChEMBL document CHEMBL1151440, “Safety and pharmacokinetics of GSK364735, a human immunodeficiency virus type 1 integrase inhibitor, following single and repeated administration in healthy adult subjects” (Antimicrob Agents Chemother, 2007)

Tests used:
Rattus norvegicus = assay: Clearance in iv dosed rat assessed as liver blood flow; format: ADME, organism-based; conditions: in vivo
Canis familiaris = assay: Clearance in iv dosed dog assessed as liver blood flow; format: ADME, organism-based, Canis lupus familiaris; conditions: in vivo
Rhesus monkey = assay: Clearance in iv dosed monkey assessed as liver blood flow; format: ADME, organism-based, Macaca mulatta; conditions: in vivo
[1] = Terminal elimination half life in iv dosed rat; format: ADME, organism-based; conditions: in vivo, read-out: beta t1/2 (converted)
[2] = Terminal elimination half life in iv dosed monkey; format: ADME, organism-based, Macaca mulatta; conditions: rhesus monkey, in vivo, read-out: beta t1/2 (converted)
[3] = Oral bioavailability rat; format: ADME, organism-based; conditions: in vivo
[4] = Terminal elimination half life in human at 200 mg administered with fat meal every 8 hrs for 8 days measured on day 1; format: ADME, organism-based; conditions: in vivo, read-out: beta t1/2 (converted)
[5] = Plasma concentration in human at 50 mg administered with fat meal every 12 hrs for 8 days measured on day 1 after 12 hrs of first dose; format: ADME, organism-based
[6] = AUC (0 to 12 hrs) in human at 100 mg administered with fat meal every 12 hrs for 8 days measured on day 8; format: ADME, organism-based; design: time < 12 hr, dose 100 mg; conditions: plasma
[7] = AUC (0 to 24 hrs) in human at 400 mg administered with fat meal daily for 8 days measured on day 8; format: ADME, organism-based; design: dose 400 mg, time < 24 hr; conditions: plasma
[8] = Cmax in human at 50 mg administered with fat meal every 12 hrs for 8 days measured on day 8; format: ADME, organism-based; design: dose 50 mg; conditions: in vivo
[9] = Cmax in human at 200 mg administered with fat meal every 12 hrs for 8 days measured on day 8; format: ADME, organism-based; design: dose 200 mg; conditions: in vivo
[10] = Cmax in human at 400 mg administered with fat meal daily for 8 days measured on day 8; format: ADME, organism-based; design: dose 400 mg; conditions: in vivo
[11] = Cmax in human at 200 mg administered with fat meal every 8 hrs for 8 days measured on day 8; format: ADME, organism-based; design: dose 200 mg; conditions: in vivo
[12] = Tmax in human at 200 mg administered with fat meal every 12 hrs for 8 days measured on day 8; format: ADME, organism-based; conditions: in vivo
[13] = Tmax in human at 400 mg administered with fat meal daily for 8 days measured on day 8; format: ADME, organism-based; conditions: in vivo
[14] = Terminal elimination half life in human at 100 mg administered with fat meal every 12 hrs for 8 days measured on day 8; format: ADME, organism-based; conditions: in vivo, read-out: beta t1/2 (converted)
[15] = Terminal elimination half life in human at 200 mg administered with fat meal every 12 hrs for 8 days measured on day 8; format: ADME, organism-based; conditions: in vivo, read-out: beta t1/2 (converted)
Homo sapiens [16] = assay: Toxicity in human assessed as adverse effect at 50 to 200 mg administered as single dose; format: organism-based; conditions: in vivo
Homo sapiens [17] = assay: Toxicity in human assessed as flatulence at 50 to 200 mg administered as single dose; format: organism-based; conditions: in vivo
Homo sapiens [18] = assay: Toxicity in human assessed as changes in 12-lead ECG at 50 to 200 mg administered as single dose; format: organism-based; conditions: in vivo
Homo sapiens [19] = assay: Toxicity in human assessed as adverse effect at 50 mg administered every 12 hrs for 8 days; format: organism-based; conditions: in vivo
Homo sapiens [20] = assay: Toxicity in human assessed as headache at 100 mg administered every 12 hrs for 8 days; format: organism-based; conditions: in vivo
Homo sapiens [21] = assay: Toxicity in human assessed as adverse effect at 200 mg administered every 12 hrs for 8 days; format: organism-based; conditions: in vivo
Homo sapiens [22] = assay: Toxicity in human assessed as dizziness at 200 mg administered every 12 hrs for 8 days; format: organism-based; conditions: in vivo
Homo sapiens [23] = assay: Toxicity in human assessed as headache at 200 mg administered every 8 hrs for 8 days; format: organism-based; conditions: in vivo
Homo sapiens [24] = assay: Toxicity in human assessed as changes in continuous telemetry monitoring at 50 to 400 mg after sequential repeated administration for 8 days; format: organism-based; conditions: in vivo, 192 h
[25] = AUC (0 to infinity) in fasted human at 200 mg administered as single dose; format: ADME, organism-based; design: dose 200 mg, time infinity; conditions: plasma
[26] = AUC (0 to infinity) in fasted human at 400 mg administered as single dose; format: ADME, organism-based; design: dose 400 mg, time infinity; conditions: plasma
[27] = AUC (0 to infinity) in human at 200 mg administered with fat meal as single dose; format: ADME, organism-based; design: dose 200 mg, time infinity; conditions: plasma
[28] = AUC (0 to infinity) in human at 400 mg administered with fat meal as single dose; format: ADME, organism-based; design: dose 400 mg, time infinity; conditions: plasma
Homo sapiens [29] = assay: Toxicity in human assessed as increase in LDL cholesterol level at 50 to 400 mg after sequential repeated dose administration for 8 days relative to basal level; format: organism-based; conditions: in vivo, 192 h
[30] = Cmax in fasted human at 100 mg administered as single dose; format: ADME, organism-based; design: dose 100 mg; conditions: in vivo
[31] = Cmax in fasted human at 200 mg administered as single dose; format: ADME, organism-based; design: dose 200 mg; conditions: in vivo
[32] = Tmax in fasted human at 200 mg administered as single dose; format: ADME, organism-based; conditions: in vivo
[33] = Tmax in fasted human at 400 mg administered as single dose; format: ADME, organism-based; conditions: in vivo
[34] = Tmax in fasted human at 200 mg administered with fat meal as single dose; format: ADME, organism-based; conditions: in vivo
[35] = Tmax in fasted human at 400 mg administered with fat meal as single dose; format: ADME, organism-based; conditions: in vivo
[36] = Terminal elimination half life in fasted human at 200 mg administered as single dose; format: ADME, organism-based; conditions: in vivo, read-out: beta t1/2 (converted)
[37] = Terminal elimination half life in fasted human at 400 mg administered as single dose; format: ADME, organism-based; conditions: in vivo, read-out: beta t1/2 (converted)
[38] = Terminal elimination half life in human at 200 mg administered with fat meal as single dose; format: ADME, organism-based; conditions: in vivo, read-out: beta t1/2 (converted)
[39] = Terminal elimination half life in human at 400 mg administered with fat meal as single dose; format: ADME, organism-based; conditions: in vivo, read-out: beta t1/2 (converted)
[40] = Apparent oral clearance in fasted human at 50 mg administered as single dose; format: ADME, organism-based; conditions: in vivo
[41] = Apparent oral clearance in fasted human at 200 mg administered as single dose; format: ADME, organism-based; conditions: in vivo
[42] = Apparent oral clearance in human at 200 mg administered with fat meal as single dose; format: ADME, organism-based; conditions: in vivo
[43] = AUC (0 to infinity) in human at 50 mg administered with fat meal every 12 hrs for 8 days measured on day 1; format: ADME, organism-based; design: dose 50 mg, time infinity; conditions: plasma
[44] = AUC (0 to infinity) in human at 100 mg administered with fat meal every 12 hrs for 8 days measured on day 1; format: ADME, organism-based; design: dose 100 mg, time infinity; conditions: plasma
[45] = Apparent oral clearance in human at 50 mg administered with fat meal every 12 hrs for 8 days measured on day 8; format: ADME, organism-based; conditions: in vivo
[46] = Apparent oral clearance in human at 100 mg administered with fat meal every 12 hrs for 8 days measured on day 8; format: ADME, organism-based; conditions: in vivo
[47] = AUC (0 to infinity) in human at 200 mg administered with fat meal every 12 hrs for 8 days measured on day 1; format: ADME, organism-based; design: dose 200 mg, time infinity; conditions: plasma
[48] = AUC (0 to infinity) in human at 400 mg administered with fat meal daily for 8 days measured on day 1; format: ADME, organism-based; design: dose 400 mg, time infinity; conditions: plasma
[49] = AUC (0 to infinity) in human at 200 mg administered with fat meal every 8 hrs for 8 days measured on day 1; format: ADME, organism-based; design: dose 200 mg, time infinity; conditions: plasma
[50] = Cmax in human at 100 mg administered with fat meal every 12 hrs for 8 days measured on day 1; format: ADME, organism-based; design: dose 100 mg; conditions: in vivo
[51] = Cmax in human at 200 mg administered with fat meal every 12 hrs for 8 days measured on day 1; format: ADME, organism-based; design: dose 200 mg; conditions: in vivo
[52] = Cmax in human at 400 mg administered with fat meal daily for 8 days measured on day 1; format: ADME, organism-based; design: dose 400 mg; conditions: in vivo
[53] = Cmax in human at 200 mg administered with fat meal every 8 hrs for 8 days measured on day 1; format: ADME, organism-based; design: dose 200 mg; conditions: in vivo
[54] = Tmax in human at 50 mg administered with fat meal every 12 hrs for 8 days measured on day 1; format: ADME, organism-based; conditions: in vivo
[55] = Tmax in human at 100 mg administered with fat meal every 12 hrs for 8 days measured on day 1; format: ADME, organism-based; conditions: in vivo
[56] = Tmax in human at 400 mg administered with fat meal daily for 8 days measured on day 1; format: ADME, organism-based; conditions: in vivo

QH (Rattus norvegicus): 5.8%
QH (Canis familiaris): 27.8%
QH (Rhesus monkey): 4.6%
half-life [1]: 1.5 h
half-life [2]: 1.5 h
bioavailability [3]: 6%
half-life [4]: 3.7 h
concentration at 12 h [5]: 93 ng/mL
AUC at 12 h [6]: 12000 ng·h/mL
AUC at 24 h [7]: 12000 ng·h/mL
Cmax [8]: 1400 ng/mL
Cmax [9]: 1600 ng/mL
Cmax [10]: 2100 ng/mL
Cmax [11]: 970 ng/mL
Tmax [12]: 3 h
Tmax [13]: 4 h
half-life [14]: 4.2 h
half-life [15]: 2.8 h
AUC(0-inf) [25]: 5500 ng·h/mL
AUC(0-inf) [26]: 6600 ng·h/mL
AUC(0-inf) [27]: 11000 ng·h/mL
AUC(0-inf) [28]: 8500 ng·h/mL
Cmax [30]: 1000 ng/mL
Cmax [31]: 1100 ng/mL
Tmax [32]: 2.5 h
Tmax [33]: 2.2 h
Tmax [34]: 4 h
Tmax [35]: 7 h
half-life [36]: 5.3 h
half-life [37]: 6.6 h
half-life [38]: 6.5 h
half-life [39]: 5.8 h
CL/F [40]: 267 mL/min
CL/F [41]: 600 mL/min
CL/F [42]: 317 mL/min
AUC(0-inf) [43]: 4000 ng·h/mL
AUC(0-inf) [44]: 11000 ng·h/mL
CL/F [45]: 150 mL/min
CL/F [46]: 138 mL/min
AUC(0-inf) [47]: 9200 ng·h/mL
AUC(0-inf) [48]: 15000 ng·h/mL
AUC(0-inf) [49]: 5900 ng·h/mL
Cmax [50]: 2500 ng/mL
Cmax [51]: 1500 ng/mL
Cmax [52]: 2200 ng/mL
Cmax [53]: 1100 ng/mL
Tmax [54]: 5.5 h
Tmax [55]: 3.25 h
Tmax [56]: 5 h
SMILES: Cn1c(=O)c(C(=O)NCCO)c(O)c2ncc(Cc3ccc(F)cc3)cc21 [GSK-364735]
Activity (Homo sapiens [16]): 4%
Activity (Homo sapiens [17]): 4%
Activity (Homo sapiens [18]): Non-toxic
Activity (Homo sapiens [19]): 25%
Activity (Homo sapiens [20]): 13%
Activity (Homo sapiens [21]): 25%
Activity (Homo sapiens [22]): Non-toxic
Activity (Homo sapiens [23]): 13%
Activity (Homo sapiens [24]): Non-toxic
Activity (Homo sapiens [29]): 0.5 mg/dL
